Data published in patent US5712417A, “Inhibitors of retroviral proteases” (Abbott Laboratories, priority 1989, dated 1998).
Counter-ions that a name gives are not always drawn.

molecular target: T1, HIV protease (Human immunodeficiency virus type 1 group M subtype B, UniProt P04585); test: Inhibition of HIV protease (cleavage of H-Ser-Phe-Asn-Phe-Opr-Gln-Ile-OH, HPLC); format: biochemical; conditions: inhibitor concentration at which the cleavage rate is halved; pH 6, 2 hours; read-out: IC50
T1 construct: HIV protease consists of 99 amino acids and is evidently split off by itself from the pol polyprotein
Source text: The compounds of the formula (I) according to the invention have enzyme-inhibiting properties. In particular, they inhibit the action of retroviral aspartyl proteases, such as that of HIV protease. Their enzyme-inhibitory action, which is in the milli- to subnanomolar range, can be determined as follows.
The heptapeptide: H-Ser-Phe-Asn-Phe-Pro-Gln-Ile-OH (P. L. Darke et al., Biophys. Res. Commun. 156 (1988) 297-303), inter alia, has hitherto been used as the substrate of HIV protease. HIV protease cleaves the substrate here between the second Phe and Pro.
General instructions for testing inhibitors of HIV proteases: a) Preparation of the substrate solution:
2 mg of H-Ser-Phe-Asn-Phe-Opr-Gln-Ile-OH (H-Opr-OH=5-oxaproline) are dissolved in 1 ml of MGTE15 buffer (use of ultrasound if necessary) and the solution is then filtered over a sterile filter (0.45 μm). […]
b) Preparation of the inhibitor solution:
2.5 times the desired molarity of the inhibitor per ml of solution are weighed out and dissolved in DMSO (10% of the final volume). The solution is diluted to the final volume with MGTE15 buffer and filtered over a sterile filter (0.45 μm). […]
c) Preparation of the protease solution:
5 μl of the HIV protease solution are diluted with MGTE25 buffer as required.
10 μl portions of the substrate solution are pipetted into test-tubes (16×100) with a screw cap. For the blank experiment, 10 μl of MGTE15 buffer containing 10% of DMSO are pipetted into a test-tube. 10 μl portions of the inhibitor solutions are added to the other test-tubes. The mixtures are incubated at 37° C. for 5-10 minutes and 5 μl of the protease solution are then added to each sample, After reaction at 35° C. for 2 hours, 10 or 20 μl (depending on the sensitivity of the HPLC apparatus) of each sample are then pipetted off, introduced into microvials and diluted with 120 μl of the HPLC mobile phase. […]
e) Conditions for the HPLC analysis:
20% (weight/weight) of aceto-
Column: Merck ®LICHROSORB RP18 (5 μm) 250×4
Column temperature: 42° C.
Detector parameters: 215 nm, 0.08 AUF, 18.2° C.
Analysis time: 11 minutes
Retention time of the substrate: 8.1 minutes
Retention time of the N-terminal tetrapeptide: 3.9 minutes
20 mM morpholinoethanesulfonic acid (MES)
15% (weight/volume) of glycerol
0.1% (volume/volume) of Triton ×100
1 mM phenylmethylsulfonyl fluoride (PMSF)
25% (weight/volume) of glycerol, additionally 1 mM dithiothreitol (DTT) The MES, EDTA, NaCl, DTT and PMSF are weighed into a conical flask and dissolved in a little water and the pH is brought to 6. The corresponding amount of glycerol is weighed into a measuring flask and ®Triton ×100 is pipetted in. The aqueous solution is transferred to the measuring flask and made up to the mark with water.
A 0.1M solution is prepared from orthophosphoric acid (FLUKA extra pure analytical grade). This solution is brought to exactly pH 2.5 with triethylamine (FLUKA extra pure analytical grade). The weight of the solution is determined and the corresponding amount of acetonitrile (fume cupboard) is weighed in. The mixture is mixed thoroughly and degassed with helium 5.0 for about 5 minutes.
Under the conditions chosen here, heptapeptides are separated from the N-terminal tetrapeptide formed during enzymatic cleavage. The percentage content of the tetrapeptide peak in respect of the sum of tetrapeptide+heptapeptide corresponds to the cleaving rate. The following IC50 values indicate the inhibitor concentration at which the cleavage rate is halved.

| SMILES | IC50 [nM] |
| --- | --- |
| CC[C@H](C)[C@H](NC(=O)[C@@H](N)Cc1ccccc1)C(=O)N[C@@H](Cc1ccccc1)[C@H](O)[C@@H](O)[C@H](Cc1ccccc1)NC(=O)[C@@H](NC(=O)[C@@H](N)Cc1ccccc1)[C@@H](C)CC [Example 65, N,N'-bis-<L-Phenylalanyl-L-isoleucyl>-2S,5S-diamino-1,6-diphenylhexane-3S,4S-diol dihydrochloride] | 1.8 |
| N[C@@H](Cc1ccccc1)C(=O)N[C@H](C(=O)N[C@@H](Cc1ccccc1)[C@@H](O)[C@H](O)[C@H](Cc1ccccc1)NC(=O)[C@@H](NC(=O)[C@@H](N)Cc1ccccc1)C1CCCCC1)C1CCCCC1 [Example 72, N,N'-bis-<L-Phenylalanyl-L-cyclohexylglycyl>-2S,5S-diamino-1,6-diphenylhexane-3R,4R-diol dihydrochloride] | 30 |
| CSCC[C@H](N)C(=O)N[C@H](C(=O)N[C@@H](Cc1ccccc1)[C@H](O)[C@@H](O)[C@H](Cc1ccccc1)NC(=O)[C@@H](NC(=O)[C@@H](N)CCSC)C(C)C)C(C)C [Example 74, N,N'-bis-<L-Methionyl-L-valyl>-2S,5S-diamino-1,6-diphenylhexane-3S,4S-dioldihydrochloride] | 1.7 |
| CSCC[C@H](NC(=O)OC(C)(C)C)C(=O)N[C@H](C(=O)N[C@@H](Cc1ccccc1)[C@H](O)[C@@H](O)[C@H](Cc1ccccc1)NC(=O)[C@@H](NC(=O)[C@H](CCSC)NC(=O)OC(C)(C)C)C(C)C)C(C)C [Example 75, N,N'-bis-<tert.-Butoxycarbonyl-L-methionyl-L-valyl>-2S,5S-diamino-1,6-diphenylhexane-3S,4S-diol] | 19 |
| COc1ccc(C[C@H](N)C(=O)N[C@H](C(=O)N[C@@H](Cc2ccccc2)[C@H](O)[C@@H](O)[C@H](Cc2ccccc2)NC(=O)[C@@H](NC(=O)[C@@H](N)Cc2ccc(OC)cc2)C(C)C)C(C)C)cc1 [Example 76, N,N'-bis-<(O-Methyltyrosyl-L-valyl>-2S,5S-diamino-1,6-diphenylhexane-3S,4S-dioldihydrochloride] | 0.29 |
| COc1ccc(C[C@H](NC(=O)OC(C)(C)C)C(=O)N[C@H](C(=O)N[C@@H](Cc2ccccc2)[C@H](O)[C@@H](O)[C@H](Cc2ccccc2)NC(=O)[C@@H](NC(=O)[C@H](Cc2ccc(OC)cc2)NC(=O)OC(C)(C)C)C(C)C)C(C)C)cc1 [Example 77, N,N'-bis-<tert.-Butoxycarbonyl-(O-methyltyrosyl)-L-valyl>-2S,5S-diamino-1,6-diphenylhexane-3S,4S-diol] | 9.2 |
| CC(C)[C@H](NC(=O)[C@@H](N)Cc1ccc(O)cc1)C(=O)N[C@@H](Cc1ccccc1)[C@H](O)[C@@H](O)[C@H](Cc1ccccc1)NC(=O)[C@@H](NC(=O)[C@@H](N)Cc1ccc(O)cc1)C(C)C [Example 78, N,N'-bis-<L-Tyrosyl-L-valyl>-2S,5S-diamino-1,6-diphenyl-hexane-3S,4S-dioldihydrochloride] | 1.8 |
| CC(C)[C@H](NC(=O)[C@H](CCCCNC(=O)OCc1ccccc1)NC(=O)OC(C)(C)C)C(=O)N[C@@H](Cc1ccccc1)[C@@H](O)[C@H](O)[C@H](Cc1ccccc1)NC(=O)[C@@H](NC(=O)[C@H](CCCCNC(=O)OCc1ccccc1)NC(=O)OC(C)(C)C)C(C)C [Example 80] | 28 |
| CC(C)[C@H](NC(=O)[C@@H](N)CCC(=O)O)C(=O)N[C@@H](Cc1ccccc1)[C@H](O)[C@@H](O)[C@H](Cc1ccccc1)NC(=O)[C@@H](NC(=O)[C@@H](N)CCC(=O)O)C(C)C [Example 82, N,N,-bis-<L-Glutamyl-L-valyl>-2S,5S-diamino-1,6-diphenyl-hexane-3S,4S-dioldihydrochloride] | 9 |
| CC(C)[C@H](NC(=O)[C@H](CCC(=O)O)NC(=O)OC(C)(C)C)C(=O)N[C@@H](Cc1ccccc1)[C@H](O)[C@@H](O)[C@H](Cc1ccccc1)NC(=O)[C@@H](NC(=O)[C@H](CCC(=O)O)NC(=O)OC(C)(C)C)C(C)C [Example 83, N,N,-bis-<tert.-Butoxycarbonyl-L-glutamyl-L-valyl>-2S,5S-diamino-1,6-diphenylhexane-3S,4S-diol] | 10 |
| CC(C)[C@H](NC(=O)[C@H](CCC(=O)OCc1ccccc1)NC(=O)OC(C)(C)C)C(=O)N[C@@H](Cc1ccccc1)[C@H](O)[C@@H](O)[C@H](Cc1ccccc1)NC(=O)[C@@H](NC(=O)[C@H](CCC(=O)OCc1ccccc1)NC(=O)OC(C)(C)C)C(C)C [Example 84, N,N,-bis-<(N-tert.-Butoxycarbonyl-O-benzyl-L-glutamyl)-L-valyl>-2S,5S-diamino-1,6-diphenylhexane-3S,4S-diol] | 110 |
| CC(C)[C@H](NC(=O)CN)C(=O)N[C@@H](Cc1ccccc1)[C@@H](O)[C@H](O)[C@H](Cc1ccccc1)NC(=O)[C@@H](NC(=O)CN)C(C)C [Example 85, N,N'-bis-<Glycyl-L-valyl>-2S,5S-diamino-1,6-diphenyl-hexane-3R,4R-dioldihydrochloride] | 1.9 |
| CC(C)[C@H](NC(=O)CNC(=O)OC(C)(C)C)C(=O)N[C@@H](Cc1ccccc1)[C@@H](O)[C@H](O)[C@H](Cc1ccccc1)NC(=O)[C@@H](NC(=O)CNC(=O)OC(C)(C)C)C(C)C [Example 86, N,N'-bis-<tert.-Butoxycarbonylglycyl-L-valyl>-2S,5S-diamino-1,6-diphenylhexane-3R,4R-diol] | 2.2 |
| CC(C)C[C@H](N)C(=O)N[C@H](C(=O)N[C@@H](Cc1ccccc1)[C@H](O)[C@@H](O)[C@H](Cc1ccccc1)NC(=O)[C@@H](NC(=O)[C@@H](N)CC(C)C)C(C)C)C(C)C [Example 87, N,N'-bis-<L-Leucyl-L-valyl>-2S,5S-diamino-1,6-diphenyl-hexane-3S,4S-dioldihydrochloride] | 1.6 |
| CC(C)C[C@H](NC(=O)OC(C)(C)C)C(=O)N[C@H](C(=O)N[C@@H](Cc1ccccc1)[C@H](O)[C@@H](O)[C@H](Cc1ccccc1)NC(=O)[C@@H](NC(=O)[C@H](CC(C)C)NC(=O)OC(C)(C)C)C(C)C)C(C)C [Example 88, N,N'-bis-<tert.-Butoxycarbonyl-L-leucyl-L-valyl>-2S,5S-diamino-1,6-diphenylhexane-3S,4S-diol] | 1000 |
| CC(C)[C@H](NC(=O)[C@@H](N)CCS(C)(=O)=O)C(=O)N[C@@H](Cc1ccccc1)[C@@H](O)[C@H](O)[C@H](Cc1ccccc1)NC(=O)[C@@H](NC(=O)[C@@H](N)CCS(C)(=O)=O)C(C)C [Example 89, N,N'-bis-<L-(S-Dioxo)methionyl-L-valyl>-2S,5S-diamino-1,6-diphenylhexane-3R,4R-diol dihydrochloride] | 1.8 |
| CC(C)[C@H](NC(=O)[C@H](CCS(C)(=O)=O)NC(=O)OC(C)(C)C)C(=O)N[C@@H](Cc1ccccc1)[C@@H](O)[C@H](O)[C@H](Cc1ccccc1)NC(=O)[C@@H](NC(=O)[C@H](CCS(C)(=O)=O)NC(=O)OC(C)(C)C)C(C)C [Example 90, N,N'-bis-<tert.-Butoxycarbonyl-L-(S-dioxo)methionyl-L-valyl>-2S,SS-diamino-1,6-diphenylhexane-3R,4R-diol] | 2.2 |
| CC(C)(C)[C@H](NC(=O)[C@H](Cc1ccccc1)CS(=O)(=O)C(C)(C)C)C(=O)N[C@@H](Cc1ccccc1)[C@@H](O)[C@H](O)[C@H](Cc1ccccc1)NC(=O)[C@@H](NC(=O)[C@H](Cc1ccccc1)CS(=O)(=O)C(C)(C)C)C(C)(C)C [Example 91, N,N'-bis-<(2S-(1,1-Dimethylethylsulfonylmethyl)-3-phenyl-propionyl)-L-tert.-butylglycyl>-2S, 5S-diamino-1,6-diphenylhexane-3R, 4R-diol] | 1.3 |
